Source: patent US5607967A, “Treatment of alzheimer's disease with 5-(tetradecyloxy)-2-furan carboxylic acid” (Merck & Co., Inc., priority 1994, dated 1997)

Key:
[1] = tested on: GR/NER chimeric receptor; test: Activation of GR/NER in CV1 cells (luciferase); conditions: for Fold of stimulation GR/NER: no TOFA
Procedure: The ligand dependent transcription assays were performed as described in Example 4, using CV1 cells in place of COS cells. The transfected CV1 cells were treated with dopamine, TOFA, or with a combination of TOFA and dopamine at the indicated concentrations and tested for luciferase activity.
CV1 cells were co-transfected with the MMTV-Luciferase reporter gene (pJA358) and the GR/NER chimeric receptor as described in Example 4. The cells were treated with increasing amount of the dopamine D1 receptor antagonist SCH 23390 with or without 50 μM […] dopamine.

[2] = tested on: GR/NER chimeric receptor; test: Activation of GR/NER in COS-7 cells (luciferase); conditions: for Fold of stimulation GR/NER: no TOFA
Procedure: The ligand dependent transcription assays were performed as described in Example 4. The transfected COS cells were treated with dopamine, TOFA, or with the combination of TOFA and dopamine at the indicated concentrations and tested for luciferase activity.

[3] = tested on: Dopamine D2 receptor antagonist (Haloperidol) induced catalepsy; test: Haloperidol induced catalepsy (Bar method); type: in vivo, rat; conditions: carrier pretreatment, 24 h later 0.1 mg/kg Haloperidol
[4] = tested on: GR/NER chimeric receptor; test: Ligand dependent transcription assay, GR/NER chimeric receptor with MMTV-luciferase reporter; type: cell-based, human
Procedure: To search for putative ligands for the NER receptor, the chimeric receptor GR/NER was prepared. […] Chimeric receptors were prepared in which the amino terminal portion of the mouse glucocorticoid receptor (mGR) that includes the DNA binding domain was fused to the putative ligand binding domains of the nuclear receptor NER to form the respective chimeric receptor GR/NER. The cDNA sequences coding for amino acid residues Arg^155 and Glu^156 of the hNER receptor (Shinar et al., NER, a new member of a gene family encoding the steroid hormone nuclear receptor; GENE (in press) were convened to the Xho I restriction site, which site was later used for the ligation to the GR cDNA sequences that coded for the DNA binding domain. Thus, the amino acid residues Arg^155 and Glu^156 of the NER receptor were convened to amino acid residues Ser^155 and His^156.
The chimera was employed in ligand dependent transactivation assays with the reporter gene MMTV-luciferase, in which the luciferase cDNA is transcribed under the control of the MMTV promoter.
(§1) Similar hybrid receptors GR/NER, GR/NUC and GR/PPAR, in identical expression plasmid backgrounds were prepared essentially as described for the construction of the GR/mPPAR and GR/NUC chimeric receptors in Schmidt et al., "Identification of a new member of the steroid hormone receptor superfamily that is activated by a peroxisome proliferator and fatty acids," Mol. Endocrinol., 6(10):1634-41, 1992, and in Boie et al., "Enantioselective activation of the peroxisome proliferator-activated receptor", J. Biol. Chem. 268(8):5530-4, 1993.
(§2) Briefly, the amino terminal portion of the mouse glucocorticoid receptor (mGR), that includes the DNA binding domain was fused to the putative ligand binding domains of the nuclear receptor NER, hNUC-I (Schmidt et al., 1992), mPPAR (Issenmann and Green, 1990) to form the respective chimeric receptors GR/NER, GR/NUC and GR/PPAR. The GR/NER chimeric receptor was constructed as described for the GR/NUC and GR/PPAR hybrid receptors (Schmidt et al., 1992; Boie et al). The cDNA sequences coding for amino acids Arg^155 and Glu^156 of the NER receptor were converted to the Xho I restriction site, that was later used for the ligation to the GR cDNA sequences that coded for the DNA binding domain. Thus, converting amino acid residues Arg^155 and Glu^156 of NER receptor to amino acid residues Ser^155 and His^156.

[5] = target: T1, GR/NUC chimeric receptor (Homo sapiens, UniProt Q03181); test: Ligand dependent transcription assay, GR/NUC chimeric receptor with MMTV-luciferase reporter; type: cell-based
T1 construct: transfected cells, MMTV-luciferase
T1 sequence (Q03181 1-441): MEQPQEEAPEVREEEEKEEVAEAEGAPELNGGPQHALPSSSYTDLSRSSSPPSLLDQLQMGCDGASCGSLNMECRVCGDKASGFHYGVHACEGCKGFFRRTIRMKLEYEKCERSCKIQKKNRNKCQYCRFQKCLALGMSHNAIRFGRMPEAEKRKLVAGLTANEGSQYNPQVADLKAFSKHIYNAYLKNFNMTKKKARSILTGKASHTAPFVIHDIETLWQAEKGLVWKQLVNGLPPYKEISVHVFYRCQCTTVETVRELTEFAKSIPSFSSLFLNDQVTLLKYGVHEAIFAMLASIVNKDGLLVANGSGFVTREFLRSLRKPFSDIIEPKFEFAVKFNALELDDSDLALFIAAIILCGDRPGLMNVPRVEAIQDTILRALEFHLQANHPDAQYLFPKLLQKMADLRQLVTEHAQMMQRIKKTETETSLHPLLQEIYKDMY
T1 sequence (P06537 1-792 partner): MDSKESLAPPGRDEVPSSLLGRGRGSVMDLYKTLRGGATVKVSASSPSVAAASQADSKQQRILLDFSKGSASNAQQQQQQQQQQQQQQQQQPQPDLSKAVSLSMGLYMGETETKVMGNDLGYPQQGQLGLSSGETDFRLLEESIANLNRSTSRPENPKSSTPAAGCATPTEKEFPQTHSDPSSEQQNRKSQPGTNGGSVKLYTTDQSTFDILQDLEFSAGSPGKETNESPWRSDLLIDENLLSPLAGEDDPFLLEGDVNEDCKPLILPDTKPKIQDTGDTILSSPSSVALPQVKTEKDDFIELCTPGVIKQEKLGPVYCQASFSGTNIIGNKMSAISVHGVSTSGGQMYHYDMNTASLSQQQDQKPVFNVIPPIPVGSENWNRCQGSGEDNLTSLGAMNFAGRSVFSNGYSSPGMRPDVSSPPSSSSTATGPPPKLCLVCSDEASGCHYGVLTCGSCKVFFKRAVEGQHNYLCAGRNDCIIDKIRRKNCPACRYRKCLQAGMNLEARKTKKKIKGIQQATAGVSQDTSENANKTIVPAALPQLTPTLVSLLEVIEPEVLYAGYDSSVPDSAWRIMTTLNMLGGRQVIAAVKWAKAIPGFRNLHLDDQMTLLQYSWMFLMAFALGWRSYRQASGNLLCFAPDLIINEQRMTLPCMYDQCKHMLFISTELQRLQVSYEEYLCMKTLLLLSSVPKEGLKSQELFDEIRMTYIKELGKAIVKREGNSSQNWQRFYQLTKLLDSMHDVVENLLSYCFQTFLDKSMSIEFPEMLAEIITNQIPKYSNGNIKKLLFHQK
Procedure: as §1, §2

[6] = target: T2, GR/PPAR chimeric receptor (Mus musculus, UniProt P23204); test: Ligand dependent transcription assay, GR/PPAR chimeric receptor with MMTV-luciferase reporter; type: cell-based
T2 construct: COS cells, MMTV-luciferase
T2 sequence (P23204 1-468): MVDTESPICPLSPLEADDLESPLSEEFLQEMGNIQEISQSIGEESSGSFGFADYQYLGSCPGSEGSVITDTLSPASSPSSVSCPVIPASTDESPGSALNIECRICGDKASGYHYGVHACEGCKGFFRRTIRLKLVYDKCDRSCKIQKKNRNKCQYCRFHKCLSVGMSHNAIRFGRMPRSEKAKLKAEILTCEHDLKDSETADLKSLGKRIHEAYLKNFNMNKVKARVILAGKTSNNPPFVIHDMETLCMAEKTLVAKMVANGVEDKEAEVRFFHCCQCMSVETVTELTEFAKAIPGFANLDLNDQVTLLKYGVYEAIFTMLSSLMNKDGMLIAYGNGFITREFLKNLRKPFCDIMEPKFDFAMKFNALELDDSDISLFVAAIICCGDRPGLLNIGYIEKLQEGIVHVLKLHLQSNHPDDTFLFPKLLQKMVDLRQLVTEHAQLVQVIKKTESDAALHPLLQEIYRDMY
T2 sequence (P06537 1-792 partner): T1 sequence (P06537 1-792 partner)
Procedure: as §1, §2
The ligand transcription assay mediated by GR/PPAR in COS cells was performed as described in Example 4. The cells were treated with TOFA and Cerulenin at 0.1, 1, 10 and 100 μM.

[7] = target: T2, GR/PPAR chimeric receptor; test: as above; type: cell-based; conditions: read-out: Fold of stimulation GR/PPAR
[8] = target: T3, human NUCI receptor (Homo sapiens, UniProt Q03181); test: Transcription assay, native NUC-I receptor co-transfected with MMTV-luciferase reporter; conditions: read-out: Fold of stimulation NUC-I
T3 sequence (Q03181 1-441): T1 sequence (Q03181 1-441)
Procedure: (§3) The reporter gene was the plasmid pJA358 in which the expression of firefly luciferase is regulated by two tandem repeats of the glucocorticoid hormone response element (GRE) linked to the MMTV promoter (Boie et al., 1993).
(§4) Transient transfection of COS and CV1 cells was performed as described (Schmidt 1992). Cells were plated (1.5×10^5 in 1 mL) into 12 well dishes in phenol red-free medium supplemented with activated charcoal treated fetal calf serum. The next day 0.12 mL of DNA 10 μg/ml (5 μg receptor DNA and 5 μg reporter plasmid), as a calcium phosphate precipitate, was added to the cells. Ligands were added to the cells 30 minutes after transfection. The next day (18 hours), the cells were washed and fresh ligands added. Twenty-four hours later, cell extracts were prepared and assayed for luciferase enzyme activity using the luciferase assay system (Promega Madison, Wis.). Each transfection was performed in triplicate and the luciferase activity of each sample measured in duplicate using the AutoClinilumat (Berthold Nashua, N.H.).
(§5) The transfected cells were treated with TOFA at 2 μM, 10 μM, 20 μM, and 50 μM and oleic acid at 50 μM, and 300 μM.

[9] = target: T4, native mouse glucocorticoid receptor (Mus musculus, UniProt P06537); test: Transcription assay, native glucocorticoid receptor co-transfected with MMTV-luciferase reporter; conditions: read-out: Fold of stimulation GR
T4 sequence (P06537 1-792): T1 sequence (P06537 1-792 partner)
Procedure: as §3, §4, §5

[10] = tested on: Muscarinic receptor agonist (Pilocarpine) induced catalepsy; test: Pilocarpine induced catalepsy (Bar method); type: in vivo, rat; conditions: carrier pretreatment, 24 h later 16 mg/kg Pilocarpine
Procedure: Catalepsy was determined by a modification of the Bar method (Undie and Friedman, 1988). A steel bar, 1.1 cm in diameter and 50 cm long, was suspended at a height of 10 cm above the working surface. Three sides of the bench around the bar were walled off with brown cardboard, and the linings on the bench surface were selected to be of the same color with the cardboard walls. The animal's hind limbs were freely placed on the bench, the fail laid out to the back, and the forelimbs placed over the bar. The length of time a rat stayed up on the bar was noted up to a preset cut-off point of 120 s. The time was counted off upon observing any of the following actions: (1) the animal came off, placing its two forepaws on the bench, (2) the animal climbed onto or over the bar with both hind limbs, (3) the animal initiated locomotion along or around the bar. Subsequently, time readings were translated into scores by awarding a score of 1 for each successfully completed 5 s on the bar. For each observation time, catalepsy scores were averaged for all the animals in a group to give the Mean Score of the group at that observation time. Further, the scores for each animal at all the observation times were added to give the total score for that animal. The mean of this last group of numbers was called the Mean Total Score of the group.
Catalepsy scores were analyzed by computer in accordance with the statistical procedures outlined by Winer, B. J.: Statistical principles in experimental design. McGraw-Hill, New York, pp. 10-428, 1971. Generally, for a given set of comparisons, observations were subjected to an appropriate analysis of variance followed by two-tailed Dunnett or Student's t-tests to detect differences between treatment groups.
Rats were pretreated with 0.4 mg/kg TOFA or with carrier (S.C.). Twenty-four hours later, the rats were challenged with 16 mg/kg Pilocarpine, an agonist of the muscarinic cholinergic receptor, and the duration of catalepsy was monitored as described in Example 10.

## NCCc1ccc(O)c(O)c1 [Dopamine, dopamine]
[1]
  Effect on transcription mediated by GR/NER in CV1 cells: suppressed the transcription
[1]; dopamine 0.1 μM
  Fold of stimulation GR/NER: 1.28 ± 0.05 fold
[1]; dopamine 1.0 μM
  Fold of stimulation GR/NER: 0.88 ± 0.11 fold
[1]; dopamine 10 μM
  Fold of stimulation GR/NER: 0.55 ± 0.06 fold
[1]; dopamine 100 μM
  Fold of stimulation GR/NER: 0.44 ± 0.14 fold
[2]; dopamine 0.1 μM, 1440 min
  Fold of stimulation GR/NER: 1.10 ± 0.07 fold
[2]; dopamine 1.0 μM
  Fold of stimulation GR/NER: 0.87 ± 0.06 fold
[2]; dopamine 10 μM, 1440 min
  Fold of stimulation GR/NER: 0.84 ± 0.08 fold
[2]; dopamine 100 μM, 1440 min
  Fold of stimulation GR/NER: 0.87 ± 0.11 fold
[2]; no significant dopamine D1 receptor expression
  Suppression of GR/NER mediated transcription in COS-7 cells: suppression was not seen

## O=C(CCCN1CCC(O)(c2ccc(Cl)cc2)CC1)c1ccc(F)cc1 [Haloperidol, haloperidol, reference compound]
[3]
  Catalepsy Duration: 20.3 ± 6.7 s

## CCCCCCCC/C=C\CCCCCCCC(=O)O [Oleic Acid, oleic acid, reference compound]
[4]
  Expression mediated by GR/NER: not by the GR/NER chimera
[4]; 50 μM
  Fold of stimulation GR/NER: 0.90 ± 0.13 fold
[4]; 300 μM
  Fold of stimulation GR/NER: 0.73 ± 0.21 fold
[5]
  Expression mediated by GR/NUC: activated expression
[5]; read-out: Fold of stimulation GR/NUC
  fold induction at 150 µM: 3.42 ± 0.28
[6]
  Expression mediated by GR/PPAR: activated expression
[7]
  fold induction at 50 µM: 2.87 ± 0.2
  fold induction at 300 µM: 14.69 ± 0.06
[8]
  fold induction at 150 µM: 0.55 ± 0.08
[9]
  fold induction at 150 µM: 0.44 ± 0.17

## CC[C@@H]1C(=O)OC[C@@H]1Cc1cncn1C [Pilocarpine, pilocarpine, reference compound]
[10]
  Catalepsy Duration: 27.3 ± 3.6 s

## Cc1cccc(Nc2cc(Cl)nc(SCC(=O)O)n2)c1C [WY14643, reference compound]
[4]
  Expression mediated by GR/NER: not by the GR/NER chimera
[6]
  Expression mediated by GR/PPAR: activated expression
